Assay results as given in patent US5011949A, “Ascorbic acid derivative” (Nippon Hypox Laboratories, Inc., priority 1989, dated 1991).

Experiments:
[1] = Effects on formazan formation in the xanthine-xanthine oxidase-Nitrotetrazolium Blue system (superoxide anion radicals); type: biochemical; details: for Inhibition ratio (%) of formazan formation: pH 7.8, 30° C., 10 min; for inhibition of formazan formation (in words): from Table-4, 0.5 mM and 4 mM
Experimental: Test Example 2 (Effects on Formazan Formation in the Xanthine-xanthine Oxidase-Nitrotetrazolium Blue System)
Specimens were added to a 0.05 M phosphoric acid buffer solution (pH 7.8) containing xanthine, EDTA 2Na and Nitrotetrazolium Blue (NTB) so as to provide the respective final concentrations of 5×10^-5 M, 1×10^-4 M and 5×10^-4 M and warmed at 30° C. for 30 minutes. Xanthine oxidase (manufactured by Sigma Corp.) was added, and the resulting mixtures were warmed at 30° C. for 10 minutes to colorimetrically determine formazan formed by superoxide anion radicals. The inhibition ratio of formazan formation was determined from the results at concentrations of 0.5 mM and 4 mM of each specimen.

[2] = Antioxidant action examined by using stable free radicals: reduction activity of DPPH (M. S. Blois method), absorbance at 517 nm; type: biochemical; details: 1 mM DPPH in ethanol, after 20 minutes, difference from solvent control (0.5% or less DMF), read-out: 50% radical eliminating concentration
Experimental: Test Example 1 (Antioxidant Action Examined by Using Stable Free Radicals)
Reduction activity of α,α-diphenyl-β-picrylhydrazyl (DPPH) which was a stable free radical was examined according to the M. S. Blois method (nature, vol. 181, page 1199, 1958) and used as an index to antioxidant action. Thus, specimens were added to 3 ml of a 1 mM DPPH solution in ethanol, and absorbance at a wavelength of 517 nm was measured using a spectrophotometer after 20 minutes. The difference in absorbance from the solvent control [0.5% or less of dimethylformamide (DMF)]was taken as the reduction activity.

CCCCOC1=C(O)[C@@H]([C@@H]2COC(C)(C)O2)OC1=O [Compound 201]
Inhibition ratio (%) of formazan formation ([1]; 0.5 mM): 9.1%
Inhibition ratio (%) of formazan formation ([1]; 4 mM): 19.1%
inhibition of formazan formation (in words) [1]: remarkably inhibited formazan formation
IC50 [2]: 14 µM

CCOC(=O)CCCOC1=C(O)[C@@H]([C@@H]2COC(C)(C)O2)OC1=O [Compound 202]
IC50 [2]: 16 µM

CC1(C)OC[C@@H]([C@H]2OC(=O)C(OCCCC(=O)O)=C2O)O1 [Compound 203]
IC50 [2]: 28 µM

CCOC(=O)C(C)OC1=C(O)C(C2COC(C)(C)O2)OC1=O (stereo not shown) [Compound 204]
IC50 [2]: 25 µM

CCCCOC(=O)COC1=C(O)[C@@H]([C@@H]2COC(C)(C)O2)OC1=O [Compound 205]
IC50 [2]: 30 µM

CC(=O)COC1=C(O)[C@@H]([C@@H]2COC(C)(C)O2)OC1=O [Compound 206, L-5,6-O-isopropylidene-2-O-methylcarbomethylascorbic acid]
Inhibition ratio (%) of formazan formation ([1]; 0.5 mM): 17.8%
Inhibition ratio (%) of formazan formation ([1]; 4 mM): 55.5%
inhibition of formazan formation (in words) [1]: remarkably inhibited formazan formation
IC50 [2]: 14 µM

CCCCCCCCCCCCCCCCCCOC1=C(O)[C@@H]([C@@H](O)CO)OC1=O [Compound 301]
IC50 [2]: 28 µM

CCCCCCCCCCCCOC1=C(O)[C@@H]([C@@H](O)CO)OC1=O [Compound 302]
IC50 [2]: 26 µM

CCCCCCCCOC1=C(O)[C@@H]([C@@H](O)CO)OC1=O [Compound 303]
IC50 [2]: 26 µM

CCCCOC1=C(O)[C@@H]([C@@H](O)CO)OC1=O [Compound 304]
IC50 [2]: 17 µM

O=C1O[C@H]([C@@H](O)CO)C(O)=C1OCc1ccccc1 [Compound 305]
IC50 [2]: 29 µM

CCOC(=O)CCCOC1=C(O)[C@@H]([C@@H](O)CO)OC1=O [Compound 306]
IC50 [2]: 29 µM

O=C(O)CCCOC1=C(O)[C@@H]([C@@H](O)CO)OC1=O [Compound 307]
IC50 [2]: 33 µM

CCOC(=O)C(C)OC1=C(O)[C@@H]([C@@H](O)CO)OC1=O (stereo partly shown) [Compound 308]
IC50 [2]: 25 µM

CCCCOC(=O)COC1=C(O)[C@@H]([C@@H](O)CO)OC1=O [Compound 309]
IC50 [2]: 28 µM

CC(=O)COC1=C(O)[C@@H]([C@@H](O)CO)OC1=O [Compound 310, L-2-O-methylcarbomethylascorbic acid]
IC50 [2]: 17 µM
